From patent US20110312495A1, “SYNERGISTIC HERBICIDAL COMPOSITION CONTAINING CLOPYRALID AND FLORASULAM” (DOW AGROSCIENCES LLC, priority 2010, published 2011)

What was measured:
Experiment in all cases: Postemergence herbicidal activity under field conditions, visual weed control
Assay type in all cases: in vivo
Conditions in all cases: field trial #1, 45 to 92 days after application
[1] = system: Bachelor's button (Centaurea cyanus, CENCY)
Method: (§1) These trials were conducted under field conditions in Germany. Trial sites were located in commercially grown winter barley and winter rye. The crops were grown using normal cultural practices for fertilization, seeding, and maintenance to ensure good growth of the crop and the weeds. The trials were conducted using normal research methodology. Trial plots were between 2.5 to 3 meters (m) wide by 6 to 10 m long. All treatments were applied using a randomized complete block trial design with 3 replications per treatment. The trial sites had naturally occurring populations of weeds. The weed spectrum included, but was not limited to, scentless mayweed (Matricaria inodora, MATIN), field forget-me-not (Myosotis arvensis, MYOAR), and Bachelor's button (Centaurea cyanus, CENCY).
(§2) Treatments consisted of formulated products applied in water. The application volumes were 200 liter per hectare (L/ha). All application were made using precision bicycle sprayers using a 3 m boom using flat fan (80° or 110°) nozzles to broadcast the treatments on the testing plots.
(§3) The treated plots and control plots were rated blind at various intervals after application. Ratings were based of Percent (%) Visual weed control, where 0 corresponds to no injury and 100 corresponds to complete kill. […]

[2] = system: field forget-me-not (Myosotis arvensis, MYOAR)
Method: as §1, §2, §3

[3] = system: scentless mayweed (Matricaria inodora, MATIN)
Method: as §1, §2, §3

Row | Structure (SMILES) | CENCY Obs - Percent control observed ([1]; clopyralid 30 g ae/ha alone) [%] | CENCY Obs - Percent control observed ([1]; clopyralid 45 g ae/ha alone) [%] | CENCY Obs - Percent control observed ([1]; clopyralid 60 g ae/ha alone) [%] | MYOAR Obs - Percent control observed ([2]; clopyralid 30 g ae/ha alone) [%] | MYOAR Obs - Percent control observed ([2]; clopyralid 45 g ae/ha alone) [%] | MYOAR Obs - Percent control observed ([2]; clopyralid 60 g ae/ha alone) [%] | MATIN Obs - Percent control observed ([3]; clopyralid 30 g ae/ha alone) [%] | MATIN Obs - Percent control observed ([3]; clopyralid 45 g ae/ha alone) [%] | MATIN Obs - Percent control observed ([3]; clopyralid 60 g ae/ha alone) [%] | CENCY Obs - Percent control observed ([1]; florasulam 2.5 g ai/ha alone) [%] | CENCY Obs - Percent control observed ([1]; florasulam 3.75 g ai/ha alone) [%] | CENCY Obs - Percent control observed ([1]; florasulam 5 g ai/ha alone) [%] | MYOAR Obs - Percent control observed ([2]; florasulam 2.5 g ai/ha alone) [%] | MYOAR Obs - Percent control observed ([2]; florasulam 3.75 g ai/ha alone) [%] | MYOAR Obs - Percent control observed ([2]; florasulam 5 g ai/ha alone) [%] | MATIN Obs - Percent control observed ([3]; florasulam 2.5 g ai/ha alone) [%] | MATIN Obs - Percent control observed ([3]; florasulam 3.75 g ai/ha alone) [%] | MATIN Obs - Percent control observed ([3]; florasulam 5 g ai/ha alone) [%]
1 | O=C(O)c1nc(Cl)ccc1Cl [Clopyralid, 3,6-dichloropyridine-2-carboxylic acid] | 37 | 57 | 73 | 0 | 0 | 0 | 0 | 50 | 58 | – | – | – | – | – | – | – | – | –
2 | COc1ncc(F)c2nc(S(=O)(=O)Nc3c(F)cccc3F)nn12 [Florasulam, 2′,6′,8-trifluoro-5-methoxy[1,2,4]triazolo[1,5-c]-pyrimidine-2-sulfonanilide] | – | – | – | – | – | – | – | – | – | 20 | 40 | 70 | 50 | 50 | 67 | 60 | 67 | 53
